Laboratory results published in US4649147A, “Treating elastin degradation with 1-(alkenoyl)azacycloalkyl carboxylic acids and derivatives” (G. D. Searle & Co., priority 1985, dated 1987).

How the values were obtained:
human leukocyte elastase = molecular target: T1, human leukocyte elastase (Homo sapiens, UniProt P08246); assay: Inhibition of hydrolysis of methoxysuccinyl-ala-ala-pro-val-nitroanilide by human leukocyte elastase; format: biochemical; settings: for IC50: human leukocyte elastase, MSN substrate
T1 sequence (P08246 30-267): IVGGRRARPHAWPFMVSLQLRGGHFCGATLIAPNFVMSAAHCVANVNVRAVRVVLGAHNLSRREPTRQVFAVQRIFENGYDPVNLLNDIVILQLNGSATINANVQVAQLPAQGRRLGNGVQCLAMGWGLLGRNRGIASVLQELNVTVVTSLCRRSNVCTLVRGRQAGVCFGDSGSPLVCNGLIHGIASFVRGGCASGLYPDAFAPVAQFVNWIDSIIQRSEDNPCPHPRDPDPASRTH
From the text: The compounds useful in practicing the method of the invention are inhibitors of leucocyte elastase and cathepsin G. Since elastase is involved in the breakdown of elastin and subsequently involved in a number of disease states, a compound which blocks the action of elastase will be useful in the management, treatment and prevention of such diseases. […] Nakajima, K., et al., J. Biol. Chem., 254, 4027 (1979). This is useful in measuring inhibition of elastase because the hydrolysis of MSN is easily quantitated by measuring the release of p-nitroaniline spectrophotometrically. Therefore, the degree of elastase inhibition can be readily measured by noting the rate of inhibition of the hydrolysis of MSN. The compounds of the invention are therefore tested in vitro as follows. The rate of hydrolysis of methoxysuccinyl-ala-ala-pro-val-nitroanalide by human leukocyte elastase is monitored spectrophotometrically in the presence and absence of test compound. The inhibition of the enzymatic reaction by 20% or more at a given concentration of test compound is taken as positive inhibition of elastase. IC50 values are then determined.

[1] = molecular target: mammalian prolyl-4-hydroxylase (Homo sapiens, UniProt P13674); assay: In vitro prolyl-4-hydroxylase inhibition; format: biochemical; settings: purified mammalian enzyme
mammalian prolyl-4-hydroxylase, sequence (P13674 18-534): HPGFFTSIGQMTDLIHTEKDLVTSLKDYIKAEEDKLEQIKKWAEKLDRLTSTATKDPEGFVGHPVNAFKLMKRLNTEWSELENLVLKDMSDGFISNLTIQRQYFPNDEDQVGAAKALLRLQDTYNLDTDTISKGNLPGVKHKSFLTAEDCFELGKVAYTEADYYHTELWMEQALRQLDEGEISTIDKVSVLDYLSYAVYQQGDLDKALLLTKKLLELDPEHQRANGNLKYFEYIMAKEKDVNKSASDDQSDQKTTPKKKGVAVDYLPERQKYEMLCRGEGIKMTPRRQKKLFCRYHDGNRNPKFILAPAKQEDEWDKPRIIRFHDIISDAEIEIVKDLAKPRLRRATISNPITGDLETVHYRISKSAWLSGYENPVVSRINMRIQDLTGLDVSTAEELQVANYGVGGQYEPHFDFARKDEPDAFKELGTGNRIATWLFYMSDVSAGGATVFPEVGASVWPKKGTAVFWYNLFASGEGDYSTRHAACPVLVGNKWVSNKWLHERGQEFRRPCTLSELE
mammalian prolyl-4-hydroxylase, sequence (P07237 18-508 partner): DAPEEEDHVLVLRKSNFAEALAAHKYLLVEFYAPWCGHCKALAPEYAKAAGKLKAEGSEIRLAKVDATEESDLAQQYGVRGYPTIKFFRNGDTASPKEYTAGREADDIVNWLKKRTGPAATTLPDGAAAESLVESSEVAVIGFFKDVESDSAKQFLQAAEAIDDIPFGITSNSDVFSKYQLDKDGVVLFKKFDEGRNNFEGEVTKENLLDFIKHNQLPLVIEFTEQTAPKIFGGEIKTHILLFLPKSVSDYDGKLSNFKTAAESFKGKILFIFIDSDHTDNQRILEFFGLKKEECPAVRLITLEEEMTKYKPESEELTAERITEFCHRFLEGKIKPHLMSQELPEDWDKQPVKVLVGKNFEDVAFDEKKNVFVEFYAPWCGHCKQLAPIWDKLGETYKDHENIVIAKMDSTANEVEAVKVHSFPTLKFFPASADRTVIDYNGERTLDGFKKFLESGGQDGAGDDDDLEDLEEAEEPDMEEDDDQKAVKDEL
From the text: Fibrosis is a connective tissue disease characterized by overaccumulation of extracellular fibrous matrix components, particularly collagen. Since prolyl hydroxylation is required for active secretion and thermal stability of collagen, fibrosis could be treated by inhibitors of prolyl-4-hydroxylase, such as the compounds of this invention. See G. C. Fuller, J. Med. Chem., 24, 651-658 (1981). The following procedure is used to test the compounds in vitro for prolyl-4-hydroxylase inhibition.
Purified mammalian prolyl-4-hydroxylase [EC 1.14.11.2:prolyl-glycyl-peptide, 2-oxyglutarate: oxidoreductase] is incubated with substrates (i.e., native unhydroxylated collagen of either 60,000 molecular weight, Km 10^-8 M; or 90,000 molecular weight, Km 10^-11 M), α-ketoglutarate, oxygen, and enzyme cofactors, with or without the test compounds. End-point is determined by measuring release of tritiated water during the hydroxylation of H^3 -peptidyl proline or release of ^14 CO2 formed from the coupled decarboxylation of ^14 C-α-ketoglutarate. Data are reported as percent inhibition with test compound at a given concentration relative to the control assays without test compound.

[2] = test system: bleomycin-induced lung fibrosis; assay: Bleomycin-induced lung fibrosis in male syrian hamsters; format: in vivo, syrian hamster; settings: 100 mg/kg, day 21 relative to untreated animals
From the text: The procedure described by Kelley et al., J. Lab. Clin. Med., 96, 954-964 (1980), is used to test the compounds in vivo for activity against bleomycin-induced lung fibrosis in male syrian hamsters. […] Activities are reported as percent inhibitions at day 21 relative to untreated animals.

Row | SMILES | IC50 (human leukocyte elastase) [µM] | IC50 [1] [µM] | also measured
1 | CCCCCCCC/C=C\CCCCCCCC(=O)N1CCC[C@H]1C(=O)O [Example 1, 1-(1-oxo-9Z-octadecenyl)proline] | 7.8 | 4.4 | 
2 | CCCCCCCC/C=C\CCCCCCCC(=O)N1CCCC(C(=O)O)C1 (stereo not shown) [Example 2, 1-(1-oxo-9Z-ocadecenyl)-3-piperidinecarboxylic acid] | 3.4 | 5.9 | 
3 | CCCCCCCC/C=C\CCCCCCCC(=O)N1CCC(C(=O)O)CC1 [Example 3, 1-(1-oxo-9Z-octadecenyl)-4-piperidinecarboxylic acid] | 4.6 | 9 | 
4 | CCCCCCCC/C=C\CCCCCCCC(=O)N1CCC(C(=O)OCC)(c2ccccc2)CC1 [Example 4, ethyl 1-(1-oxo-9Z-octadecenyl)-4-phenyl-4-piperidinecarboxylate] |  |  | inhibition against elastase (human leukocyte elastase; at 20 mcM): 22%
5 | CCCCCCCC/C=C\CCCCCCCC(=O)N1CCC(C(=O)O)(c2ccccc2)CC1 [Example 5, 1-(1-oxo-9Z-octadecenyl)-4-phenyl-4-piperidinecarboxylic acid] | 1.2 |  | 
6 | CCCCCCCC/C=C\CCCCCCCC(=O)N1CCC[C@H]1C(=O)OC [Example 6, 1-(1-oxo-9Z-octadecenyl)proline methyl ester] |  |  | Bleomycin-induced Fibrosis, % Inhib. of Hydroxyproline [2]: 30.1%; Bleomycin-induced Fibrosis, % Inhib. of Lung wt./body wt. [2]: 33.0%
